{"source": "PubChem BioAssay (NCI)", "experiment_in_all_cases": "inhibition of tumour cell growth, NCI panel, 48 h", "key": {"[1]": {"system": "SF-539 CNS"}, "[2]": {"system": "SF-295 CNS"}, "[3]": {"system": "M14 melanoma"}, "[4]": {"system": "SNB-19 CNS"}, "[5]": {"system": "SR leukemia"}, "[6]": {"system": "UO-31 renal"}, "[7]": {"system": "KM12 colon"}, "[8]": {"system": "A549 NSCLC"}, "[9]": {"system": "TK-10 renal"}, "[10]": {"system": "NCI-H226 lung"}, "[11]": {"system": "SK-OV-3 ovarian"}, "[12]": {"system": "HOP-92 NSCLC"}, "[13]": {"system": "OVCAR-4 ovarian"}, "[14]": {"system": "MDA-MB-231 breast"}, "[15]": {"system": "MCF7 breast"}, "[16]": {"system": "NCI-H460 lung"}, "[17]": {"system": "OVCAR-5 ovarian"}, "[18]": {"system": "RPMI-8226 leukemia"}, "[19]": {"system": "COLO 205 colon"}, "[20]": {"system": "HL-60(TB) leukemia"}, "[21]": {"system": "OVCAR-3 ovarian"}, "[22]": {"system": "EKVX NSCLC"}, "[23]": {"system": "HCC-2998 colon"}, "[24]": {"system": "NCI-H23 lung"}, "[25]": {"system": "786-0 renal"}, "[26]": {"system": "DU-145 prostate"}, "[27]": {"system": "MDA-N"}, "[28]": {"system": "SF-268 CNS"}, "[29]": {"system": "NCI/ADR-RES ovarian"}, "[30]": {"system": "IGROV1 ovarian"}, "[31]": {"system": "UACC-257 melanoma"}, "[32]": {"system": "HCT-15 colon"}, "[33]": {"system": "CCRF-CEM leukemia"}, "[34]": {"system": "HS 578T breast"}, "[35]": {"system": "BT-549 breast"}, "[36]": {"system": "HT29 colon"}, "[37]": {"system": "OVCAR-8 ovarian"}, "[38]": {"system": "MOLT-4 leukemia"}, "[39]": {"system": "HCT-116 colon"}, "[40]": {"system": "SNB-75 CNS"}, "[41]": {"system": "SK-MEL-28 melanoma"}, "[42]": {"system": "U251 CNS"}, "[43]": {"system": "MALME-3M melanoma"}, "[44]": {"system": "UACC-62 melanoma"}, "[45]": {"system": "SN12C renal"}, "[46]": {"system": "SK-MEL-5 melanoma"}, "[47]": {"system": "PC-3 prostate"}, "[48]": {"system": "SW-620 colon"}, "[49]": {"system": "MDA-MB-435"}, "[50]": {"system": "ACHN renal"}, "[51]": {"system": "RXF 393 renal"}, "[52]": {"system": "SK-MEL-2 melanoma"}, "[53]": {"system": "HOP-62 NSCLC"}, "[54]": {"system": "LOX IMVI melanoma"}, "[55]": {"system": "K-562 leukemia"}, "[56]": {"system": "CAKI-1 renal"}, "[57]": {"system": "A498 renal"}}, "note": "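48-hour exposure; five concentrations; linearly interpolated endpoints. TGI: concentration producing complete growth inhibition.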"}
{"smiles": "O=C(ON=c1c2ccccc2ccc2ccccc12)c1cc([N+](=O)[O-])cc([N+](=O)[O-])c1", "values": [{"measurement": "TGI", "setting": "[1]", "value": "> 100", "unit": "µM"}, {"measurement": "TGI", "setting": "[2]", "value": "> 100", "unit": "µM"}, {"measurement": "TGI", "setting": "[3]", "value": "> 100", "unit": "µM"}, {"measurement": "TGI", "setting": "[4]", "value": "> 100", "unit": "µM"}, {"measurement": "TGI", "setting": "[5]", "value": "> 100", "unit": "µM"}, {"measurement": "TGI", "setting": "[6]", "value": "> 100", "unit": "µM"}, {"measurement": "TGI", "setting": "[7]", "value": "> 100", "unit": "µM"}, {"measurement": "TGI", "setting": "[8]", "value": "> 100", "unit": "µM"}, {"measurement": "TGI", "setting": "[9]", "value": "> 100", "unit": "µM"}, {"measurement": "TGI", "setting": "[10]", "value": "> 100", "unit": "µM"}, {"measurement": "TGI", "setting": "[11]", "value": "> 100", "unit": "µM"}, {"measurement": "TGI", "setting": "[12]", "value": "> 100", "unit": "µM"}, {"measurement": "TGI", "setting": "[13]", "value": "> 100", "unit": "µM"}, {"measurement": "TGI", "setting": "[14]", "value": "> 100", "unit": "µM"}, {"measurement": "TGI", "setting": "[15]", "value": "> 100", "unit": "µM"}, {"measurement": "TGI", "setting": "[16]", "value": "> 100", "unit": "µM"}, {"measurement": "TGI", "setting": "[17]", "value": "> 100", "unit": "µM"}, {"measurement": "TGI", "setting": "[18]", "value": "> 100", "unit": "µM"}, {"measurement": "TGI", "setting": "[19]", "value": "> 100", "unit": "µM"}, {"measurement": "TGI", "setting": "[20]", "value": "> 100", "unit": "µM"}, {"measurement": "TGI", "setting": "[21]", "value": "> 100", "unit": "µM"}, {"measurement": "TGI", "setting": "[22]", "value": "> 100", "unit": "µM"}, {"measurement": "TGI", "setting": "[23]", "value": "> 100", "unit": "µM"}, {"measurement": "TGI", "setting": "[24]", "value": "> 100", "unit": "µM"}, {"measurement": "TGI", "setting": "[25]", "value": "> 100", "unit": "µM"}, {"measurement": "TGI", "setting": "[26]", "value": "> 100", "unit": "µM"}, {"measurement": "TGI", "setting": "[27]", "value": "> 100", "unit": "µM"}, {"measurement": "TGI", "setting": "[28]", "value": "> 100", "unit": "µM"}, {"measurement": "TGI", "setting": "[29]", "value": "> 100", "unit": "µM"}, {"measurement": "TGI", "setting": "[30]", "value": "> 100", "unit": "µM"}, {"measurement": "TGI", "setting": "[31]", "value": "> 100", "unit": "µM"}, {"measurement": "TGI", "setting": "[32]", "value": "> 100", "unit": "µM"}, {"measurement": "TGI", "setting": "[33]", "value": 94, "unit": "µM"}, {"measurement": "TGI", "setting": "[34]", "value": "> 100", "unit": "µM"}, {"measurement": "TGI", "setting": "[35]", "value": "> 100", "unit": "µM"}, {"measurement": "TGI", "setting": "[36]", "value": "> 100", "unit": "µM"}, {"measurement": "TGI", "setting": "[37]", "value": "> 100", "unit": "µM"}, {"measurement": "TGI", "setting": "[38]", "value": "> 100", "unit": "µM"}, {"measurement": "TGI", "setting": "[39]", "value": "> 100", "unit": "µM"}, {"measurement": "TGI", "setting": "[40]", "value": "> 100", "unit": "µM"}, {"measurement": "TGI", "setting": "[41]", "value": "> 100", "unit": "µM"}, {"measurement": "TGI", "setting": "[42]", "value": "> 100", "unit": "µM"}, {"measurement": "TGI", "setting": "[43]", "value": 77.4, "unit": "µM"}, {"measurement": "TGI", "setting": "[44]", "value": "> 100", "unit": "µM"}, {"measurement": "TGI", "setting": "[45]", "value": "> 100", "unit": "µM"}, {"measurement": "TGI", "setting": "[46]", "value": "> 100", "unit": "µM"}, {"measurement": "TGI", "setting": "[47]", "value": "> 100", "unit": "µM"}, {"measurement": "TGI", "setting": "[48]", "value": "> 100", "unit": "µM"}, {"measurement": "TGI", "setting": "[49]", "value": "> 100", "unit": "µM"}, {"measurement": "TGI", "setting": "[50]", "value": "> 100", "unit": "µM"}, {"measurement": "TGI", "setting": "[51]", "value": "> 100", "unit": "µM"}, {"measurement": "TGI", "setting": "[52]", "value": "> 100", "unit": "µM"}, {"measurement": "TGI", "setting": "[53]", "value": "> 100", "unit": "µM"}, {"measurement": "TGI", "setting": "[54]", "value": "> 100", "unit": "µM"}, {"measurement": "TGI", "setting": "[55]", "value": "> 100", "unit": "µM"}]}
{"smiles": "CN(CCCNC(=O)c1cn(C)c2c1ccc1cc(Cl)ccc12)CCCNC(=O)c1cn(C)c2c1ccc1cc(Cl)ccc12", "values": [{"measurement": "TGI", "setting": "[1]", "value": 3.88, "unit": "µM"}, {"measurement": "TGI", "setting": "[3]", "value": 3.75, "unit": "µM"}, {"measurement": "TGI", "setting": "[4]", "value": "> 100", "unit": "µM"}, {"measurement": "TGI", "setting": "[5]", "value": 16.3, "unit": "µM"}, {"measurement": "TGI", "setting": "[9]", "value": "> 100", "unit": "µM"}, {"measurement": "TGI", "setting": "[10]", "value": "> 100", "unit": "µM"}, {"measurement": "TGI", "setting": "[12]", "value": 19.3, "unit": "µM"}, {"measurement": "TGI", "setting": "[13]", "value": "> 27.2", "unit": "µM"}, {"measurement": "TGI", "setting": "[16]", "value": "> 100", "unit": "µM"}, {"measurement": "TGI", "setting": "[17]", "value": 18.3, "unit": "µM"}, {"measurement": "TGI", "setting": "[19]", "value": 2.85, "unit": "µM"}, {"measurement": "TGI", "setting": "[22]", "value": "> 100", "unit": "µM"}, {"measurement": "TGI", "setting": "[24]", "value": "> 100", "unit": "µM"}, {"measurement": "TGI", "setting": "[26]", "value": 3.79, "unit": "µM"}, {"measurement": "TGI", "setting": "[27]", "value": 5.6, "unit": "µM"}, {"measurement": "TGI", "setting": "[28]", "value": 3.25, "unit": "µM"}, {"measurement": "TGI", "setting": "[56]", "value": 9.14, "unit": "µM"}, {"measurement": "TGI", "setting": "[31]", "value": "> 100", "unit": "µM"}, {"measurement": "TGI", "setting": "[57]", "value": 43.6, "unit": "µM"}, {"measurement": "TGI", "setting": "[32]", "value": 2.89, "unit": "µM"}, {"measurement": "TGI", "setting": "[35]", "value": 30.9, "unit": "µM"}, {"measurement": "TGI", "setting": "[36]", "value": 3.19, "unit": "µM"}, {"measurement": "TGI", "setting": "[41]", "value": 3.31, "unit": "µM"}, {"measurement": "TGI", "setting": "[43]", "value": 7.05, "unit": "µM"}, {"measurement": "TGI", "setting": "[44]", "value": 3.76, "unit": "µM"}, {"measurement": "TGI", "setting": "[45]", "value": 3.35, "unit": "µM"}, {"measurement": "TGI", "setting": "[46]", "value": 20, "unit": "µM"}, {"measurement": "TGI", "setting": "[47]", "value": 2.97, "unit": "µM"}, {"measurement": "TGI", "setting": "[49]", "value": 3.23, "unit": "µM"}, {"measurement": "TGI", "setting": "[50]", "value": 3.47, "unit": "µM"}, {"measurement": "TGI", "setting": "[55]", "value": "> 100", "unit": "µM"}]}
